Source: patent US9879032B2, “Pyridine compounds” (Daiichi Sankyo Company, Limited, priority 2015, dated 2018)

What was measured:
[1] = test system: plasma ALP (80-90% containing TNAP); assay: Inhibitory test of plasma TNAP activity in B6 mouse; assay type: in vivo; details: administered orally, average inhibition from 0 hour to 6 hours after administration
Protocol: After blood sampling from the tail vein using a heparin-treated hematocrit capillary tube (EM Meister Hematocrit Capillary Tube, AS ONE Corp.) (as the sample before compound administration), each test compound suspended in a 0.5% methylcellulose solution (powder purchased from Wako Pure Chemical Industries, Ltd. was adjusted to 0.5% with Otsuka distilled water) was administered orally to the mouse. 1, 2, 4, 6, and 24 hours after the administration, blood was collected from the tail vein using a heparin-treated hematocrit capillary tube to obtain a plasma sample. The plasma sample was added to an assay buffer (1 M Tris, 1 M MgCl2, 20 mM ZnCl2, and water, pH 7.5), and the mixture was left standing for 5 minutes. Then, the absorbance at 405 nm was measured and used as a blank. The substrate pNPP was added to the plasma sample and incubated at room temperature for 180 minutes. Then, the absorbance (ABS: 405 nm) was measured using a microplate reader (model plus 384, Molecular Devices, LLC), and the concentration of produced p-nitrophenol was calculated. The blank was subtracted from all measurement values to calculate TNAP activity at each time point with the TNAP activity of the sample before compound administration defined as 100%. The pharmaceutical effect of the test compound was evaluated by the average inhibition of plasma ALP (80-90% containing TNAP) activity for 6 hours from 0 hour to 6 hours after the administration of the test compound. It was calculated according to the following expression: 100−((plasma ALP activity at 0 hr+plasma ALP activity at 1 hr)*1/2+(plasma ALP activity at 1 hr+plasma ALP activity at 2 hr)*1/2+(plasma ALP activity at 2 hr+plasma ALP activity at 4 hr)*2/2+(plasma ALP activity at 4 hr+plasma ALP activity at 6 hr)*2/2)/6.

human TNAP = human TNAP (Homo sapiens (Human), UniProt P05186); assay: Inhibitory test of TNAP activity (pNPP substrate, p-nitrophenol production); assay type: biochemical; details: inhibition of human TNAP activity, incubated at room temperature for 60 minutes
Protocol: COS 1 cells (DS Pharma Biomedical Co., Ltd.) were transfected with human TNAP (OriGene Technologies, Inc.) using Lipofectamine LTX & Plus reagent (Invitrogen Corp.). On the next day, the medium was replaced with a fresh medium, and the cells were cultured in an incubator for 3 days. After 3 days, the culture supernatant was collected and concentrated by centrifugation at 5000 G for 30 minutes using Amicon 14, 10^4 cut (Merck Millipore). The concentrated culture supernatant was dialyzed against 5 L of 50 mM Tris/200 mM NaCl/1 mM MgCl2/20 μM ZnCl2 twice and used as an enzyme source (enzyme solution). The substrate pNPP (ProteoChem Inc.) was adjusted to 3.1 mM with Milli-Q water, and a solution of each test compound dissolved in dimethyl sulfoxide (DMSO; Wako Pure Chemical Industries, Ltd.) by 6 serial dilutions at a 5-fold common ratio from 100 μM, or DMSO was added thereto at a final concentration of 1% by volume. The enzyme solution adjusted to 2 μg/mL with an assay buffer (200 mM Tris/2 mM MgCl2/0.04 mM ZnCl2/0.01% Tween 20) was added in the same amount of the substrate solution and incubated at room temperature for 60 minutes. Then, the absorbance (ABS: 405 nm) was measured using a microplate reader (model plus 384, Molecular Devices, LLC), and the concentration of produced p-nitrophenol was calculated.

Chain of human TNAP (P05186 18-502): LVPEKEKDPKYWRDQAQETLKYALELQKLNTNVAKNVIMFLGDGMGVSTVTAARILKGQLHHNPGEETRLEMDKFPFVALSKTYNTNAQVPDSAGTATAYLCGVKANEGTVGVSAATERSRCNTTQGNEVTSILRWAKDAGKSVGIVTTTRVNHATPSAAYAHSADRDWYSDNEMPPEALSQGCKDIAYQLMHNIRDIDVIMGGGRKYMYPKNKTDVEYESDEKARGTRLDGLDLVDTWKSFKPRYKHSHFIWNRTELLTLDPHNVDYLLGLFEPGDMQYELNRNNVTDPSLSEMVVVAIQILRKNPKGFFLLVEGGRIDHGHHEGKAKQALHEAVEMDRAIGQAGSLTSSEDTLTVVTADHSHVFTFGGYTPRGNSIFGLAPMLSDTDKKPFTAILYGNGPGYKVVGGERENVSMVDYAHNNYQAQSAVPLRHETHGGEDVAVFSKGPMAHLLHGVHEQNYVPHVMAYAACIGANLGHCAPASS

IC50 (human TNAP) | Compound | Plasma ALP inhibition (6 h ave. inhibition %) [1]
 | COc1ccc(Cl)cc1S(=O)(=O)[N-]c1cnc2c(c1)C(=O)NCCO2.[K+] [Example 47, Potassium [(5-chloro-2-methoxyphenyl)sulfonyl](5-oxo-2,3,4,5-tetrahydropyrido[3,2-f][1,4]oxazepin-7-yl)azanide] | 54.7%
 | COc1ccc(F)cc1S(=O)(=O)[N-]c1cnc2c(c1)C(=O)NC1(CC1)CO2.[K+] [Example 57, Potassium [(5-fluoro-2-methoxyphenyl)sulfonyl](5′-oxo-4′,5′-dihydrospiro[cyclopropane-1,3′-pyrido[3,2-f][1,4]oxazepin]-7′-yl)azanide] | 53.5%
 | O=C1NC2(CC2)COc2ncc([N-]S(=O)(=O)c3cc(Cl)ccc3OC(F)(F)F)cc21.[K+] [Example 58, Potassium {[5-chloro-2-(trifluoromethoxy)phenyl]sulfonyl}(5′-oxo-4′,5′-dihydrospiro[cyclopropane-1,3′-pyrido[3,2-f][1,4]oxazepin]-7′-yl)azanide] | 50.3%
 | COc1ccc(Cl)cc1S(=O)(=O)[N-]c1cnc2c(c1)C(=O)NC1(CC1)CO2.[K+] [Example 55, Potassium [(5-chloro-2-methoxyphenyl)sulfonyl](5′-oxo-4′,5′-dihydrospiro[cyclopropane-1,3′-pyrido[3,2-f][1,4]oxazepin]-7′-yl)azanide] | 58.9%
 | CCOc1ccc(F)cc1S(=O)(=O)[N-]c1cnc2c(c1)C(=O)NC1(CC1)CO2.[K+] [Example 59] | 66.2%
 | O=C1N[C@@H](CO)COc2ncc([N-]S(=O)(=O)c3cc(Cl)ccc3OC(F)(F)F)cc21.[K+] [Example 54, Potassium {[5-chloro-2-(trifluoromethoxy)phenyl]sulfonyl}[(3S)-3-(hydroxymethyl)-5-oxo-2,3,4,5-tetrahydropyrido[3,2-f][1,4]oxazepin-7-yl]azanide] | 74.8%
 | COc1ccc(F)cc1S(=O)(=O)[N-]c1cnc2c(c1)C(=O)NCCO2.[K+] [Example 48, Potassium [(5-fluoro-2-methoxyphenyl)sulfonyl](5-oxo-2,3,4,5-tetrahydropyrido[3,2-f][1,4]oxazepin-7-yl)azanide] | 61.6%
 | COc1ccc(Cl)cc1S(=O)(=O)[N-]c1cnc2c(c1)C(=O)N[C@@H](CO)CO2.[K+] [Example 51, Potassium [(5-chloro-2-methoxyphenyl)sulfonyl][(3S)-3-(hydroxymethyl)-5-oxo-2,3,4,5-tetrahydropyrido[3,2-f][1,4]oxazepin-7-yl]azanide] | 63.7%
9.1 nM | COc1ccc(CN2CCOc3ncc(NS(=O)(=O)c4cc(Cl)ccc4OC)cc3C2=O)c(OC)c1 [Example 8, 5-Chloro-N-[4-(2,4-dimethoxybenzyl)-5-oxo-2,3,4,5-tetrahydropyrido[3,2-f][1,4]oxazepin-7-yl]-2-methoxybenzenesulfonamide] | 
12.7 nM | COc1ccc(F)cc1S(=O)(=O)Nc1cnc2c(c1)C(=O)N(C)CCO2 [Example 2, 5-Fluoro-2-methoxy-N-(4-methyl-5-oxo-2,3,4,5-tetrahydropyrido[3,2-f][1,4]oxazepin-7-yl)benzenesulfonamide] | 
8.7 nM | COc1ccc(Cl)cc1S(=O)(=O)Nc1cnc2c(c1)C(=O)N[C@@H](C(C)C)CO2 [Example 26, 5-Chloro-2-methoxy-N-[(3S)-5-oxo-3-(propan-2-yl)-2,3,4,5-tetrahydropyrido[3,2-f][1,4]oxazepin-7-yl]benzenesulfonamide] | 
6.1 nM | COc1ccc(Cl)cc1S(=O)(=O)Nc1cnc2c(c1)C(=O)N(CCO)CCO2 [Example 6, 5-Chloro-N-[4-(2-hydroxyethyl)-5-oxo-2,3,4,5-tetrahydropyrido[3,2-f][1,4]oxazepin-7-yl]-2-methoxybenzenesulfonamide] | 
 | COc1ccc(F)cc1S(=O)(=O)[N-]c1cnc2c(c1)C(=O)N[C@@H](CO)CO2.[K+] [Example 52, Potassium [(5-fluoro-2-methoxyphenyl)sulfonyl][(3S)-3-(hydroxymethyl)-5-oxo-2,3,4,5-tetrahydropyrido[3,2-f][1,4]oxazepin-7-yl]azanide] | 61.3%
 | O=C1NCCOc2ncc([N-]S(=O)(=O)c3cc(Cl)ccc3OC(F)(F)F)cc21.[K+] [Example 50, Potassium {[5-chloro-2-(trifluoromethoxy)phenyl]sulfonyl}(5-oxo-2,3,4,5-tetrahydropyrido[3,2-f][1,4]oxazepin-7-yl)azanide] | 56.0%
13.2 nM | COc1ccc(Cl)cc1S(=O)(=O)Nc1cnc2c(c1)C(=O)N(c1cccnc1)CCO2 [Example 39, 5-Chloro-2-methoxy-N-[5-oxo-4-(pyridin-3-yl)-2,3,4,5-tetrahydropyrido[3,2-f][1,4]oxazepin-7-yl]benzenesulfonamide] | 
1.4 nM | COc1ccc(Cl)cc1S(=O)(=O)Nc1cnc2c(c1)C(=O)NC(c1cccnc1)CO2 (stereo not shown) [Example 44, 5-Chloro-2-methoxy-N-[5-oxo-3-(pyridin-3-yl)-2,3,4,5-tetrahydropyrido[3,2-f][1,4]oxazepin-7-yl]benzenesulfonamide] | 
6.2 nM | COc1ccc(Cl)cc1S(=O)(=O)Nc1cnc2c(c1)C(=O)N(C)C(C)CO2 (stereo not shown) [Example 16, 5-Chloro-N-(3,4-dimethyl-5-oxo-2,3,4,5-tetrahydropyrido[3,2-f][1,4]oxazepin-7-yl)-2-methoxybenzenesulfonamide] | 
36.2 nM | COc1ccc(Cl)cc1S(=O)(=O)Nc1cnc2c(c1)C(=O)N(C)CC(C)O2 (stereo not shown) [Example 14, 5-Chloro-N-(2,4-dimethyl-5-oxo-2,3,4,5-tetrahydropyrido[3,2-f][1,4]oxazepin-7-yl)-2-methoxybenzenesulfonamide] | 
4.1 nM | O=C1N[C@@H](CO)COc2ncc(NS(=O)(=O)c3cc(F)ccc3OC(F)(F)F)cc21 [Example 32, 5-Fluoro-N-[(3S)-3-(hydroxymethyl)-5-oxo-2,3,4,5-tetrahydropyrido[3,2-f][1,4]oxazepin-7-yl]-2-(trifluoromethoxy)benzenesulfonamide] | 
7.2 nM | CC[C@H]1COc2ncc(NS(=O)(=O)c3cc(Cl)ccc3OC)cc2C(=O)N1C [Example 24, 5-Chloro-N-[(3S)-3-ethyl-4-methyl-5-oxo-2,3,4,5-tetrahydropyrido[3,2-f][1,4]oxazepin-7-yl]-2-methoxybenzenesulfonamide] | 
3.5 nM | COc1ccc(F)cc1S(=O)(=O)Nc1cnc2c(c1)C(=O)N[C@@H](C)CO2 [Example 23, 5-Fluoro-2-methoxy-N-[(3S)-3-methyl-5-oxo-2,3,4,5-tetrahydropyrido[3,2-f][1,4]oxazepin-7-yl]benzenesulfonamide] | 
4.8 nM | COc1ccc(OC)c(S(=O)(=O)Nc2cnc3c(c2)C(=O)NCCO3)c1 [Example 11, 2,5-Dimethoxy-N-(5-oxo-2,3,4,5-tetrahydropyrido[3,2-f][1,4]oxazepin-7-yl)benzenesulfonamide] | 

Compound | IC50 (human TNAP) | Plasma ALP inhibition (6 h ave. inhibition %) [1]
COc1ccc(F)cc1S(=O)(=O)Nc1cnc2c(c1)C(=O)NC1(CC1)CO2 [Example 36, 5-Fluoro-2-methoxy-N-(5′-oxo-4′,5′-dihydrospiro[cyclopropane-1,3′-pyrido[3,2-f][1,4]oxazepin]-7′-yl)benzenesulfonamide] | 2.2 nM | 
COc1ccc(F)cc1S(=O)(=O)Nc1cnc2c(c1)C(=O)NCCO2 [Example 10, 5-Fluoro-2-methoxy-N-(5-oxo-2,3,4,5-tetrahydropyrido[3,2-f][1,4]oxazepin-7-yl)benzenesulfonamide] | 4 nM | 
O=C1N[C@@H](CO)COc2ncc(NS(=O)(=O)c3cc(Cl)ccc3OC(F)(F)F)cc21 [Example 31, 5-Chloro-N-[(3S)-3-(hydroxymethyl)-5-oxo-2,3,4,5-tetrahydropyrido[3,2-f][1,4]oxazepin-7-yl]-2-(trifluoromethoxy)benzenesulfonamide] | 1.6 nM | 
